PubChem BioAssay (NCI)
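Protocol summary: plate cells (96-well), add compound at 5 concentrations, incubate 48 h, interpolate endpoints linearly. GI50 marks 50% less growth. At the TGI there is no net growth.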

Assays:
Test in all cases: NCI anticancer screen, dose series, 48 h
[1] = system: A549 NSCLC
[2] = system: SW-620 colon
[3] = system: HOP-62 NSCLC
[4] = system: COLO 205 colon
[5] = system: HCC-2998 colon
[6] = system: K-562 leukemia
[7] = system: IGROV1 ovarian
[8] = system: MCF7 breast
[9] = system: HCT-15 colon
[10] = system: CAKI-1 renal
[11] = system: SK-MEL-5 melanoma
[12] = system: UACC-62 melanoma
[13] = system: HL-60(TB) leukemia
[14] = system: CCRF-CEM leukemia
[15] = system: HT29 colon
[16] = system: MDA-MB-231 breast
[17] = system: T-47D breast
[18] = system: SN12C renal
[19] = system: RXF 393 renal
[20] = system: SF-268 CNS
[21] = system: SK-MEL-28 melanoma
[22] = system: KM12 colon
[23] = system: M14 melanoma
[24] = system: NCI-H23 lung
[25] = system: SNB-75 CNS
[26] = system: LOX IMVI melanoma
[27] = system: PC-3 prostate
[28] = system: SK-OV-3 ovarian
[29] = system: MALME-3M melanoma
[30] = system: RPMI-8226 leukemia
[31] = system: EKVX NSCLC
[32] = system: DU-145 prostate
[33] = system: MDA-N
[34] = system: 786-0 renal
[35] = system: TK-10 renal
[36] = system: OVCAR-8 ovarian
[37] = system: UACC-257 melanoma
[38] = system: OVCAR-3 ovarian
[39] = system: NCI-H226 lung
[40] = system: UO-31 renal
[41] = system: SF-295 CNS
[42] = system: OVCAR-5 ovarian
[43] = system: HCT-116 colon
[44] = system: U251 CNS
[45] = system: SNB-19 CNS
[46] = system: ACHN renal
[47] = system: OVCAR-4 ovarian
[48] = system: NCI-H460 lung
[49] = system: SK-MEL-2 melanoma
[50] = system: MDA-MB-435
[51] = system: MOLT-4 leukemia
[52] = system: HOP-92 NSCLC
[53] = system: NCI-H522 lung
[54] = system: SF-539 CNS
[55] = system: A498 renal
[56] = system: HS 578T breast
[57] = system: NCI/ADR-RES ovarian
[58] = system: BT-549 breast
[59] = system: SR leukemia

Compound `CCN(CC)CCCNc1ccc([N+](=O)[O-])c2nc3ccc(OC)cc3c(NCCCN(CC)CC)c12` has a TGI [1] of 3.73 µM, a TGI [2] of 3.98 µM and a TGI [3] greater than 10 µM. The TGI [4] was greater than 10 µM, the TGI [5] was 3.03 µM and the TGI [6] was 3.75 µM. For the same compound, the TGI [7] was greater than 10 µM, the TGI [8] was 3.56 µM and the TGI [9] was 2.79 µM. For the same compound, the TGI [10] was greater than 10 µM, the TGI [11] was greater than 10 µM and the TGI [12] was greater than 10 µM. The TGI [13] was 1.04 µM, the TGI [14] was 7.37 µM and the TGI [15] was 3.42 µM. For the same compound, the TGI [16] was 2.84 µM, the TGI [17] was greater than 10 µM and the TGI [18] was 5.89 µM. For the same compound, the TGI [19] was 4.05 µM, the TGI [20] was greater than 10 µM and the TGI [21] was greater than 10 µM. The TGI [22] was 3.05 µM, the TGI [23] was greater than 10 µM and the TGI [24] was 4.76 µM. For the same compound, the TGI [25] was greater than 10 µM, the TGI [26] was 2.69 µM and the TGI [27] was 2.9 µM. For the same compound, the TGI [28] was greater than 10 µM, the TGI [29] was greater than 10 µM and the TGI [30] was 5.81 µM. The TGI [31] was greater than 10 µM, the TGI [32] was greater than 10 µM and the TGI [33] was greater than 10 µM. The TGI [34] was 2.76 µM, the TGI [35] was greater than 10 µM and the TGI [36] was 2.7 µM. It also gave a TGI [37] greater than 10 µM.
`COC(=O)c1cc2c3c(cc(NCCN)c2[nH]1)N(C(=O)c1cc2cc(OC)c(OC)c(OC)c2[nH]1)CC3CCl` (centres undefined) was tested, and the TGI [1] was 0.481 µM, the TGI [38] was 0.569 µM and the TGI [39] was 0.178 µM. It also gave a TGI [3] of 0.48 µM, a TGI [4] of 0.146 µM and a TGI [5] of 0.182 µM. The TGI [6] was greater than 100 µM, the TGI [9] was 1.42 µM and the TGI [40] was 0.65 µM. For the same compound, the TGI [11] was 0.165 µM, the TGI [12] was 0.176 µM and the TGI [41] was 0.858 µM. The TGI [15] was 0.213 µM, the TGI [16] was 0.467 µM and the TGI [42] was 0.42 µM. For the same compound, the TGI [21] was 0.48 µM, the TGI [43] was 0.0256 µM and the TGI [23] was 0.253 µM. The TGI [44] was 0.0366 µM, the TGI [45] was 0.0517 µM and the TGI [46] was 0.251 µM. The TGI [47] was 0.31 µM, the TGI [27] was 1.01 µM and the TGI [28] was 5.12 µM. It also gave a TGI [48] of 0.536 µM, a TGI [29] of 0.123 µM and a TGI [31] of 0.827 µM. For the same compound, the TGI [32] was 0.0516 µM, the TGI [49] was 0.164 µM and the TGI [33] was 0.207 µM. It also gave a TGI [34] of 0.283 µM, a TGI [35] of 2.95 µM and a TGI [50] of 0.293 µM.
Compound `C=CC(=O)Nc1cccc(Nc2nc(Nc3ccc(OCCOC)cc3)ncc2F)c1` has a GI50 [1] of 2.77 µM, a TGI [1] of 13.1 µM and a GI50 [2] of 2.14 µM. For the same compound, the TGI [2] was 22.3 µM, the GI50 [38] was 2.47 µM and the TGI [38] was 16.1 µM. For the same compound, the GI50 [39] was 0.914 µM, the TGI [39] was 11.6 µM and the GI50 [3] was 2.42 µM. The TGI [3] was 20.7 µM, the GI50 [4] was 2.39 µM and the TGI [4] was 11 µM. The GI50 [5] was 3.55 µM, the TGI [5] was 19.5 µM and the GI50 [6] was 4.8 µM. The TGI [6] was greater than 100 µM, the GI50 [51] was 3.97 µM and the TGI [51] was 33.6 µM. For the same compound, the GI50 [7] was 1.66 µM, the TGI [7] was 5.45 µM and the GI50 [8] was 2.54 µM. The TGI [8] was 17.2 µM, the GI50 [52] was 0.928 µM and the TGI [52] was 5.34 µM. For the same compound, the GI50 [53] was 1.78 µM, the TGI [53] was 8.14 µM and the GI50 [54] was 1.47 µM. For the same compound, the TGI [54] was 4.95 µM, the GI50 [9] was 1.03 µM and the TGI [9] was 16.1 µM. It also gave a GI50 [10] of 0.511 µM, a TGI [10] of 2.46 µM and a GI50 [40] of 0.549 µM. The TGI [40] was 5.06 µM, the GI50 [11] was 6.18 µM and the TGI [11] was 20.2 µM. For the same compound, the GI50 [12] was 1.93 µM, the TGI [12] was 12.9 µM and the GI50 [41] was 2.95 µM. The TGI [41] was 14 µM, the GI50 [13] was 7.7 µM and the TGI [13] was 41.7 µM. It also gave a GI50 [14] of 4.06 µM, a TGI [14] greater than 63.1 µM and a GI50 [55] of 0.306 µM. It also gave a TGI [55] of 1.66 µM, a GI50 [15] of 2.6 µM and a TGI [15] of 16.3 µM. The GI50 [16] was 2.85 µM, the TGI [16] was 24.7 µM and the GI50 [17] was 1.7 µM. The TGI [17] was 8.9 µM, the GI50 [18] was 1.77 µM and the TGI [18] was 31.4 µM. The GI50 [56] was 1.17 µM, the TGI [56] was 6.97 µM and the GI50 [19] was 0.387 µM. It also gave a TGI [19] of 2.73 µM, a GI50 [42] of 1.89 µM and a TGI [42] of 21 µM. For the same compound, the GI50 [20] was 2.06 µM, the TGI [20] was 16 µM and the GI50 [21] was 5.62 µM. The TGI [21] was 24.4 µM, the GI50 [43] was 1.82 µM and the TGI [43] was 13.1 µM. The GI50 [22] was 3.43 µM, the TGI [22] was 15.6 µM and the GI50 [57] was 2.94 µM. For the same compound, the TGI [57] was 16.3 µM, the GI50 [23] was 1.12 µM and the TGI [23] was 12.7 µM. For the same compound, the GI50 [44] was 1.89 µM, the TGI [44] was 16 µM and the GI50 [24] was 5.67 µM. It also gave a TGI [24] of 29.1 µM, a GI50 [58] of 0.718 µM and a TGI [58] of 8.23 µM. For the same compound, the GI50 [45] was 3.91 µM, the TGI [45] was 37.4 µM and the GI50 [25] was 0.341 µM. It also gave a TGI [25] of 2.44 µM, a GI50 [59] of 3.41 µM and a TGI [59] greater than 100 µM. It also gave a GI50 [46] of 0.454 µM, a TGI [46] of 2.84 µM and a GI50 [26] of 1.12 µM. It also gave a TGI [26] of 3.62 µM, a GI50 [47] of 0.824 µM and a TGI [47] of 17.1 µM. The GI50 [27] was 2.92 µM, the TGI [27] was 26.9 µM and the GI50 [28] was 0.533 µM. It also gave a TGI [28] of 3.17 µM, a GI50 [48] of 2.28 µM and a TGI [48] of 14.5 µM. It also gave a GI50 [29] of 3.08 µM, a TGI [29] of 20.9 µM and a GI50 [30] of 3.28 µM. It also gave a TGI [30] of 23.3 µM, a GI50 [31] of 3.16 µM and a TGI [31] of 15.6 µM. The GI50 [32] was 1.55 µM, the TGI [32] was 13.7 µM and the GI50 [49] was 1.9 µM. The TGI [49] was 8.65 µM, the GI50 [34] was 0.887 µM and the TGI [34] was 13.1 µM. For the same compound, the GI50 [35] was 0.99 µM, the TGI [35] was 3.86 µM and the GI50 [36] was 3.19 µM. For the same compound, the TGI [36] was 45.1 µM, the GI50 [50] was 2.87 µM and the TGI [50] was 15.7 µM. The GI50 [37] was 6.4 µM and the TGI [37] was 22.5 µM.
`Cn1c(N)nc2c(nc(OCc3ccccc3)n2C2OC(CO)C(O)C2O)c1=O` (centres undefined) showed a TGI [1] greater than 100 µM, a TGI [2] greater than 100 µM and a TGI [38] greater than 100 µM. The TGI [39] was greater than 100 µM, the TGI [3] was greater than 100 µM and the TGI [4] was greater than 100 µM. For the same compound, the TGI [6] was greater than 100 µM, the TGI [51] was greater than 100 µM and the TGI [7] was greater than 100 µM. The TGI [8] was greater than 100 µM, the TGI [52] was greater than 100 µM and the TGI [53] was greater than 100 µM. It also gave a TGI [10] greater than 100 µM, a TGI [40] greater than 100 µM and a TGI [11] greater than 100 µM. The TGI [12] was greater than 100 µM, the TGI [41] was greater than 100 µM and the TGI [13] was greater than 100 µM. For the same compound, the TGI [14] was greater than 100 µM, the TGI [55] was greater than 100 µM and the TGI [15] was greater than 100 µM. For the same compound, the TGI [16] was greater than 100 µM, the TGI [17] was greater than 100 µM and the TGI [18] was greater than 100 µM. It also gave a TGI [56] greater than 100 µM, a TGI [19] greater than 100 µM and a TGI [42] greater than 100 µM. For the same compound, the TGI [20] was greater than 100 µM, the TGI [21] was greater than 100 µM and the TGI [43] was greater than 100 µM. The TGI [22] was greater than 100 µM, the TGI [23] was greater than 100 µM and the TGI [44] was greater than 100 µM. For the same compound, the TGI [45] was greater than 100 µM, the TGI [25] was greater than 100 µM and the TGI [59] was greater than 100 µM. It also gave a TGI [46] greater than 100 µM, a TGI [26] greater than 100 µM and a TGI [47] greater than 100 µM. For the same compound, the TGI [27] was greater than 100 µM, the TGI [28] was greater than 100 µM and the TGI [48] was greater than 100 µM. For the same compound, the TGI [29] was greater than 100 µM, the TGI [30] was greater than 100 µM and the TGI [31] was greater than 100 µM. It also gave a TGI [32] greater than 100 µM, a TGI [49] greater than 100 µM and a TGI [33] greater than 100 µM. It also gave a TGI [34] greater than 100 µM, a TGI [35] greater than 100 µM and a TGI [36] greater than 100 µM. The TGI [50] was greater than 100 µM and the TGI [37] was greater than 100 µM.
